Experiments:
Format in all cases: cell-based
human neutrophils [1] = assay: Lucigenin-enhanced superoxide chemiluminescence of human plasma / isolated neutrophils; settings: for superoxide chemiluminescence of isolated neutrophils alone (no plasma): neutrophils in PBS, fMLP 10^-6 M, PAF 10^-6, homogenate 1 ml; for chemiluminescence in cell-free plasma: plasma filtered 1 um; for plasma chemiluminescence activation by pancreatic proteases: trypsin 1000 U/ml, chymotrypsin 100 U/ml, 155×10^3 neutrophils/ml plasma
Method: Human blood was collected in heparinized Vacutainer tubes (10 ml) and centrifuged at 500 G for 10 minutes. Plasma was collected and 3 ml were mixed with lucigenin (N,N′-dimethyl-9,9′-bisacridinium […]) (Sigma Chemical CO., St. Louis, Mo.) (1 ml of a 1 mM stock solution in deinozed water, final concentration […], near optimal concentration as determined by Ohoi, et al (26)) for each measurement in small petri dishes (60 mm diameter). In later modifications of the test, a 25 mm diameter polyurethane disk was placed inside the petri dishes to reduce the vessel diameter, and subsequently, the reagent requirements to 1 ml plasma mixed with 0.75 ml lucigenin (1 mM stock solution) and only 100 μl of an activator. […] Six Vacutainer tubes were normally collected from healthy volunteers. This volume gives approximately 8 measurements using the original configuration (3 ml plasma/measurement) and up to 25 measurements with the modified system (1 ml/measurement). When measuring whole blood samples, 3 ml of whole blood were subsitituted for 3 ml of plasma.
A standard neutrophil isolation procedure was used as described in Example 2 or pseudopod formation tests. Human blood from healthy volunteers (approximately 60 ml) was collected in heparinized Vacutainer tubes and transferred to a 60 ml syringe where it was sedimented on ice for 40-60 minutes. It is important that heparin and not EDTA ([…]) be used as an antocoagulant, since the calcium-chelating properties of EDTA can suppress neutrophil activation. The neutrophil-rich plasma layer was collected and layered onto 3.5 ml Histopaque (Sigma Diagnostics, St. Louis, Mo.) in 12 ml polypropylene centrifuge tubes (17×100 mm, Falcon, Shrewsbury, Mass.) and centrifuged at 600 G for 20 minutes. The sedimented neutrophils and red blood cells were then gently resuspended in 2 ml PBS (phosphate buffer solution). The resuspeneded cells were carefully layered onto 2.5 ml of a 55% isotonic Percoll solution (Sigma Diagnostics, St. Louis, Mo.) and 2.5 ml of a 74% isotonic Percoll solution in deionized water. This suspension was centrifuged at 600 G for 15 minutes and the middle granulyte layer was removed and resuspended in PBS to achieve a concentration of 10^6 neutrophils/ml.
For standard plasma measurements (e.g., low molecular weight fractions and whole pancreatic homogenates) human blood from healthy volunteers (approximately 60 ml) was collected in heparinized Vacutainer tubes and centrifuged for 10 minutes at 500 g. The plasma layer, including the buffy coat was carefully decanted using a steril transfer pipette. This fraction was then warmed to room temperature and plasma measurements were obtained. Plasma was diluted with sterile saline to achieve a plasma neutrophil concentration of 120×10^3 neutrophil/ml.
For experiments with different plasma concentrations versus neotrophil activators, measurements were made using isolated neutrophils, isolated neutrophils in 10% and 30% autologous plasma, and neutrophil-free plasma (filtered with 1 um filter and verified by cell count).
Cell-free plasma was obtained by filtering sedimented plasma through a 1 um filter (Whatman 6780-2510, Swedesboro, N.J.). The filtered plasma was visually verified to be cell free by placing an aliquot on a microscope slide and examining in detail at 400×. For experiments with different percentages of added plasma, 5 ml total volumes were made consisting of 1 ml lucigenin (1 mM), 1 ml activator, and either 3 ml suspended neutrophils, 2 ml suspended neutrophils plus 1 ml cell-free plasma mixed in PBS necessary for either 10% or 30% total plasma concentration, or 3 ml cell-free plasma. Activators (1 ml) were added via an injection port to the mixture at time t=0 seconds. […]

[2] = test system: isolated naive human neutrophils; assay: Pseudopod formation test: protease inhibitors against pancreatic homogenate-induced neutrophil activation; settings: for percent neutrophil pseudopod formation (activation) by rat pancreatic homogenate in presence of protease inhibitor: neutrophils preincubated 10 min with inhibitor (PMSF 1 mM; Complete 1 tablet/20 ml; Benzamidine 1150 μM; Futhan 0.1 mg/ml; aprotinin 20 μM), then homogenate 10 min, homogenate alone 85.1±11.5%
Method: (§1) For the pseudopod assay, venous blood is collected in heparinized tubes from healthy human volunteers and put on ice. It is important that heparin and not EDTA ([…]) be used as an anticoagulant, as the calcium-chelating properties of EDTA can affect neutrophil activation. […] Other chemicals for the Krebs-Henseleit buffer are from Fisher Scientific, Fair Lawn, N.J. The resuspended cells are then gently layered onto 2.5 ml of a 55% isotonic Percoll (Sigmal Chemical Company) solution and 2.5 ml of a 74% isotonic Percoll solution in deionized water. The suspension is centrifuged for 15 minutes at 600 G and the middle granulocyte layer is removed and resuspended in PBS to achieve a concentration of 10^6 neutrophils/ml. 100 μl aliquots of suspended neutrophils are added to 100 μl of test plasma or activating agent. This mixture is mixed and then incubated for 10 minutes at 27° C. After incubation 100 μl of 3% glutaraldehyde (Fisher Scientific) is added to stop the reaction. 100 μl of crystal violet in phosphate (pH: 7.4) buffer is then added to stain leukocyte nuclei on wet mount preparations. Freely suspended neutrophils with pseudopodia are identified by their segmented nuclei and the presence of cytoplasmic granules. One hundred neutrophils are counted. Cells with pseudopod projection greater than about 1 um are considered positive.
Rat homogenate was collected as described in detail in Example 5. Briefly, male Wistar rats (250-350 gm) were housed in a controlled environment and maintained on a standard pellet diet for at least three days before initiation of experimental procedures. Animals were cannulated via the femoral arteries and vein under general anesthesia using pentobarbital (50 mg/kg i.m.). The rats were exsanguinated and the heart, liver, spleen, small intestine, and pancreas removed. The organs were immediately washed and cleaned in cold 0.25 M sucrose solution. Then, the cleaned organs were vigorously homogenized in Krebs-Henseleit solution ([…]). Aliquots were filtered by centrifugation at 500 G for 10 min. Pancreatic homogenates were incubated for 2.5 hours at 38° C., stirred frequently. Incubated pancreatic homogenate as well as controls were tested against naive human donor neutrophils for pseudopod formation as described in Example 2.
To determine whether or not neutrophil activation by pancreatic homogenate is protease dependent, the pseudopod formation test was repeated by preincubation of isolated neutrophils with various protease inhibitors (50 μl) for 10 minutes followed by addition of pancreas homogenate (50 μl) and further incubation for 10 minutes. […] All protease inhibitors were the gift of Dr. Tony E. Hugli of The Scripps Clinic and Research Institute, with the exception of Complete™, an all-purpose protease inhibitor purchased from Boehringer Mannheim, Indianapolis, Ind. One of the components of Complete™ is EDTA (ethylenediaminetetra-acetic acid), a standard anti-coagulant and divalent cation chelator.
To determine whether the protease inhibitors were acting on the pancreatic homogenate or the neutrophils themselves, a new set of neutrophil pseudopod experiments was carried out. […] Appropriate controls were recorded as well as a positive control (10^−7 M fMLP) to determine the washed cells' ability to respond to stimuli. Formyl-methionyl-leucyl-phenylalanine (fMLP) was obtained from Sigma Chemical Company, St. Louis, Mo.

human neutrophils [3] = assay: Neutrophil PAF inhibition experiments (pseudopod formation)
[4] = test system: isolated naive human neutrophils; assay: Pseudopod formation test: neutrophil activation by organ homogenates, fractions and proteases; settings: for percent pseudopod formation, control solution incubated with the additive alone (no organ homogenate): Krebs-Henseleit control incubated with additive at the same concentration, control activation 10.5±2.5%; for direct neutrophil activation by proteases / zymogen fragments (in words): pseudopod formation
Method: as §1
The organ homogenization procedure was similar to the method of Lefer (Glenn et al. (1971) Circ Res 29:338-349, Lefer (1973) Am J. Physiol 224:824-831). Male Wistar rats (250-350 gm) were housed in a controlled environment and maintained on standard pellet diet for at least three days before initiation of experimental procedures. Animals were cannulated via the femoral arteries and vein under general anesthesia using phenobarbital (50 mg/kg i.m.) No heparin was injected other than that needed to ensure open catheter lines (10 U/ml plasma-Lyte). A central incision was made over the abdomen. The rats were exsanguinated and the heart, liver, spleen, small intestine, and pancreas were removed. In two animals a kidney and adrenal gland were removed as well. They were immediately washed and cleaned in cold 0.25 M sucrose solution. The cleaned organs were vigorously homogenized in Krebs-Henseleit solution (1:3 w/v). Homogenate was then further diluted in Krebs-Henseleit solution (1:2 v/v). Aliquots were filtered by centrifugation at 500 G for 10 min and a sample aliquot was stored at 4° C. until assayed. The other fraction was incubated for 2.5 hours at 38° C. with mild stirring and stored at 4° C. until assayed. Incubation of tissue homogenates for this time period at a moderate temperature enhances any enzymatic activity that may be necessary in order to produce a neutrophil activation product. The incubated and non-incubated organ homogenates as well as controls were tested against naive human donor leukocytes for pseudopod formation tests and on whole rat donor blood for the NBT assay. Pseudopod determination was carried out as described in Example 2 using isolated neutrophils in D-PAS combined with homogenate in a 4:1 ratio. Nitroblue tetrazolium reduction by leukocytes due to superoxide in rat homogenate assays was also tested using the NBT procedure described in Example 2, with the application of 25 μl of homogenate to donor blood. The NBT assays for porcine homogenate activity were measured using the slightly modified NBT protocol with the crystal violet stain, also detailed in Example 2. […]

For “1-O-alkyl-2-acetyl-sn-glycero-3-phosphocholine [PAF]”, the “superoxide chemiluminescence of isolated neutrophils alone (no plasma)” value (human neutrophils [1]) was “likewise unreactive” and the “chemiluminescence in cell-free plasma” value (human neutrophils [1]) was “unreactive”.

With `N=C(N)c1ccccc1` [Benzamidine] the “percent neutrophil pseudopod formation (activation) by rat pancreatic homogenate in presence of protease inhibitor” value [2] was 41.5±24.6%.

For `O=S(=O)(F)Cc1ccccc1` [PMSF, Phenylmethylsulfonyl fluoride], the “percent neutrophil pseudopod formation (activation) by rat pancreatic homogenate in presence of protease inhibitor” value [2] was 40.8±12.9%.

With `Cc1nnc2n1-c1sc3c(c1C(c1ccccc1Cl)=NC2)CC(C(=O)N1CCOCC1)C3` (centres unmarked) [WEB 2170] the “reduction of neutrophil activation by pancreatic or trypsin-incubated homogenates” value (human neutrophils [3]; 5 μM, 50 μM, 500 μM) was “largely ineffective”.

In the case of `CSCC[C@H](NC=O)C(=O)N[C@@H](CC(C)C)C(=O)N[C@@H](Cc1ccccc1)C(=O)O` [fMLP, Formyl-methionyl-leucyl-phenylalanine], the “percent activation of twice-washed neutrophils by activator” value ([2]; no inhibitor, pancreatic homogenate 50 μl (Control group) or fMLP 10^-7 M (positive control)) is reported as 74%, the “superoxide chemiluminescence of isolated neutrophils alone (no plasma)” value (human neutrophils [1]) is reported as “not particularly reactive” and the “chemiluminescence in cell-free plasma” value (human neutrophils [1]) is reported as “unreactive”.

“Phospholipase A2: from bovine pancreas, also degrades PAF” was tested, and the “intrinsic effect on neutrophils” value (human neutrophils [3]; 1, 10, 20 U/ml) was “neutrophil stimulatory properties”.

aprotinin was tested, and the “percent neutrophil pseudopod formation (activation) by rat pancreatic homogenate in presence of protease inhibitor” value [2] was 51±17.2%.

For chymotrypsin, the “plasma chemiluminescence activation by pancreatic proteases” value (human neutrophils [1]) was “little activation”, the “percent pseudopod formation, control solution incubated with the additive alone (no organ homogenate)” value [4] was 42% and the “direct neutrophil activation by proteases / zymogen fragments (in words)” value [4] was “did not result in neutrophil activation”.

B1: trypsinogen: trypsin precursor from bovine pancreas (protein, UniProt P00760 18-246, looked up)
pro-form: VDDDDKIVGGYTCGANTVPYQVSLNSGYHFCGGSLINSQWVVSAAHCYKSGIQVRLGEDNINVVEGNEQFISASKSIVHPSYNSNTLNNDIMLIKLKSAASLNSRVASISLPTSCASAGTQCLISGWGNTKSSGTSYPDVLKCLKAPILSDSSCKSAYPGQITSNMFCAGYLEGGKDSCQGDSGGPVVCSGKLQGIVSWGSGCAQKNKPGVYTKVCNYVSWIKQTIASN
modifications: pro-form
notes: trypsin precursor from bovine pancreas
With B1 the “direct neutrophil activation by proteases / zymogen fragments (in words)” value [4] was “not stimulatory towards neutrophils”.

B2: trypsin: serine protease, Type 11-S from porcine pancreas (protein, UniProt P00761 9-231, looked up)
Trypsin: IVGGYTCAANSIPYQVSLNSGSHFCGGSLINSQWVVSAAHCYKSRIQVRLGEHNIDVLEGNEQFINAAKIITHPNFNGNTLDNDIMLIKLSSPATLNSRVATVSLPRSCAAAGTECLISGWGNTKSSGSSYPSLLQCLKAPVLSDSSCKSSYPGQITGNMICVGFLEGGKDSCQGDSGGPVVCNGQLQGIVSWGYGCAQKNKPGVYTKVCNYVNWIQQTIAAN
With B2 the “plasma chemiluminescence activation by pancreatic proteases” value (human neutrophils [1]) was “little activation”, the “percent pseudopod formation, control solution incubated with the additive alone (no organ homogenate)” value [4] was 8.5±0.8% and the “direct neutrophil activation by proteases / zymogen fragments (in words)” value [4] was “did not result in neutrophil activation”.
